Assay results reported in patent US8273754B2, “Substituted 1H-pyrazolo[3,4-D]pyrimidine-6-amine compounds” (ArQule, Inc., priority 2008, dated 2012).
Like-named read-outs stand apart in the source and are kept apart here.

System: cancer cells
Experiment: MTS cell growth inhibition assay (72 hours)
Assay type: cell-based
How it was run: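 Growth inhibition read as formazan absorbance at 492 nm after 4 h MTS/PMS, following 72 h compound exposure at 37 °C in 1% FBS DMEM (cells pre-seeded 18 h). IC50 = 50% absorbance reduction; inhibition graded in bands.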

[1] = Homo sapiens, DLD-1, 72 h, DLD-1 cells, read-out: DLD-1 MTS 72 hr at 10 μM
[2] = Homo sapiens, KATO III, 72 h, KATO III cells, read-out: KATO III MTS 72 hr at 10 μM
[3] = Homo sapiens, MDA-MB-231, 72 h, MDA-MB-231 cells, read-out: MDA-MB-231 MTS 72 hr at 10 μM
[4] = Homo sapiens, NCI-H1299, 72 h, NCI-H1299 cells, read-out: NCI-H1299 MTS 72 hr at 10 μM
[5] = PaCa-2, 72 h, PACA-2 cells, read-out: PACA-2 MTS 72 hr at 10 μM

Structure (SMILES): Nc1nc(NC2Cc3ccccc3N(Cc3ccccc3OCc3c(Cl)cccc3Cl)C2)c2cn[nH]c2n1 (centres unmarked) [Compound 152, N4-(1-{2-[(2,6-dichlorobenzyl)oxy]benzyl}-1,2,3,4-tetrahydroquinolin-3-yl)-1H-pyrazolo[3,4-d]pyrimidine-4,6-diamine]
- inhibition at 10 µM [1]: > 79%
- inhibition at 10 µM [2]: 50 to 79%
- inhibition at 10 µM [3]: 50 to 79%
- inhibition at 10 µM [4]: < 50%
- inhibition at 10 µM [5]: < 50%

Structure (SMILES): COc1ccc(Oc2ccccc2CN2CC(Nc3nc(N)nc4[nH]ncc34)Cc3ccccc32)cc1 (centres unmarked) [Compound 153, N4-{1-[2-(4-methoxyphenoxy)benzyl]-1,2,3,4-tetrahydroquinolin-3-yl}-1H-pyrazolo[3,4-d]pyrimidine-4,6-diamine]
- inhibition at 10 µM [1]: 50 to 79%
- inhibition at 10 µM [2]: 50 to 79%
- inhibition at 10 µM [3]: < 50%
- inhibition at 10 µM [4]: < 50%
- inhibition at 10 µM [5]: < 50%

Structure (SMILES): Nc1nc(NC2Cc3ccccc3N(Cc3cccc(Oc4cc(Cl)cc(Cl)c4)c3)C2)c2cn[nH]c2n1 (centres unmarked) [Compound 154, N4-{1-[3-(3,5-dichlorophenoxy)benzyl]-1,2,3,4-tetrahydroquinolin-3-yl}-1H-pyrazolo[3,4-d]pyrimidine-4,6-diamine]
- inhibition at 10 µM [1]: > 79%
- inhibition at 10 µM [2]: > 79%
- inhibition at 10 µM [3]: 50 to 79%
- inhibition at 10 µM [4]: 50 to 79%
- inhibition at 10 µM [5]: 50 to 79%

Structure (SMILES): Nc1nc(NC2Cc3ccccc3N(Cc3ccc(OCc4ccccc4)cc3)C2)c2cn[nH]c2n1 (centres unmarked) [Compound 155, N4-{1-[4-(benzyloxy)benzyl]-1,2,3,4-tetrahydroquinolin-3-yl}-1H-pyrazolo[3,4-d]pyrimidine-4,6-diamine]
- inhibition at 10 µM [1]: > 79%
- inhibition at 10 µM [2]: > 79%
- inhibition at 10 µM [3]: > 79%
- inhibition at 10 µM [4]: > 79%
- inhibition at 10 µM [5]: > 79%

Structure (SMILES): COc1cc(CN2CC(Nc3nc(N)nc4[nH]ncc34)Cc3ccccc32)ccc1OCc1ccccc1 (centres unmarked) [Compound 156, N4-{1-[4-(benzyloxy)-3-methoxybenzyl]-1,2,3,4-tetrahydroquinolin-3-yl}-1H-pyrazolo[3,4-d]pyrimidine-4,6-diamine]
- inhibition at 10 µM [1]: 50 to 79%
- inhibition at 10 µM [2]: < 50%
- inhibition at 10 µM [3]: < 50%
- inhibition at 10 µM [4]: < 50%
- inhibition at 10 µM [5]: < 50%

Structure (SMILES): COc1ccc(-n2ncc(CN3CC(Nc4nc(N)nc5[nH]ncc45)Cc4ccccc43)c2C)cc1 (centres unmarked) [Compound 157, N4-(1-{[1-(4-methoxyphenyl)-5-methyl-1H-pyrazol-4-yl]methyl}-1,2,3,4-tetrahydroquinolin-3-yl)-1H-pyrazolo[3,4-d]pyrimidine-4,6-diamine]
- inhibition at 10 µM [1]: < 50%
- inhibition at 10 µM [2]: 50 to 79%
- inhibition at 10 µM [3]: < 50%
- inhibition at 10 µM [4]: < 50%
- inhibition at 10 µM [5]: < 50%

Structure (SMILES): Cc1ccc(Oc2ccccc2CN2CC(Nc3nc(N)nc4[nH]ncc34)Cc3ccccc32)cc1 (centres unmarked) [Compound 158, N4-{1-[2-(4-methylphenoxy)benzyl]-1,2,3,4-tetrahydroquinolin-3-yl}-1H-pyrazolo[3,4-d]pyrimidine-4,6-diamine]
- inhibition at 10 µM [1]: > 79%
- inhibition at 10 µM [2]: > 79%
- inhibition at 10 µM [3]: 50 to 79%
- inhibition at 10 µM [4]: < 50%
- inhibition at 10 µM [5]: > 79%

Structure (SMILES): Nc1nc(NC2Cc3ccccc3N(Cc3ccccc3-c3ccc(F)cc3)C2)c2cn[nH]c2n1 (centres unmarked) [Compound 159, N4-{1-[(4′-fluorobiphenyl-2-yl)methyl]-1,2,3,4-tetrahydroquinolin-3-yl}-1H-pyrazolo[3,4-d]pyrimidine-4,6-diamine]
- inhibition at 10 µM [1]: < 50%
- inhibition at 10 µM [2]: < 50%
- inhibition at 10 µM [3]: < 50%
- inhibition at 10 µM [4]: < 50%
- inhibition at 10 µM [5]: < 50%

Structure (SMILES): COc1ccc(CN2CC(Nc3nc(N)nc4[nH]ncc34)Cc3ccccc32)cc1OCc1ccccc1 (centres unmarked) [Compound 160, N4-{1-[3-(benzyloxy)-4-methoxybenzyl]-1,2,3,4-tetrahydroquinolin-3-yl}-1H-pyrazolo[3,4-d]pyrimidine-4,6-diamine]
- inhibition at 10 µM [1]: > 79%
- inhibition at 10 µM [2]: > 79%
- inhibition at 10 µM [3]: < 50%
- inhibition at 10 µM [4]: < 50%
- inhibition at 10 µM [5]: > 79%

Structure (SMILES): Cc1ccccc1-n1ncc(CN2CC(Nc3nc(N)nc4[nH]ncc34)Cc3ccccc32)c1C (centres unmarked) [Compound 161, N4-(1-{[5-methyl-1-(2-methylphenyl)-1H-pyrazol-4-yl]methyl}-1,2,3,4-tetrahydroquinolin-3-yl)-1H-pyrazolo[3,4-d]pyrimidine-4,6-diamine]
- inhibition at 10 µM [1]: < 50%
- inhibition at 10 µM [2]: < 50%
- inhibition at 10 µM [3]: < 50%
- inhibition at 10 µM [4]: < 50%
- inhibition at 10 µM [5]: < 50%

Structure (SMILES): COc1ccc(CN2CC(Nc3nc(N)nc4[nH]ncc34)Cc3ccccc32)cc1OC1CCCC1 (centres unmarked) [Compound 162, N4-{1-[3-(cyclopentyloxy)-4-methoxybenzyl]-1,2,3,4-tetrahydroquinolin-3-yl}-1H-pyrazolo[3,4-d]pyrimidine-4,6-diamine]
- inhibition at 10 µM [1]: < 50%
- inhibition at 10 µM [2]: < 50%
- inhibition at 10 µM [3]: < 50%
- inhibition at 10 µM [4]: < 50%
- inhibition at 10 µM [5]: < 50%

Structure (SMILES): Nc1nc(NC2Cc3ccccc3N(Cc3cc(Cl)ccc3C(F)(F)F)C2)c2cn[nH]c2n1 (centres unmarked) [Compound 163, N4-{1-[5-chloro-2-(trifluoromethyl)benzyl]-1,2,3,4-tetrahydroquinolin-3-yl}-1H-pyrazolo[3,4-d]pyrimidine-4,6-diamine]
- inhibition at 10 µM [1]: > 79%
- inhibition at 10 µM [2]: > 79%
- inhibition at 10 µM [3]: > 79%
- inhibition at 10 µM [4]: > 79%
- inhibition at 10 µM [5]: > 79%

Structure (SMILES): Nc1nc(NC2Cc3ccccc3N(Cc3cccc(Oc4ccc(Cl)cc4)c3)C2)c2cn[nH]c2n1 (centres unmarked) [Compound 164, N4-{1-[3-(4-chlorophenoxy)benzyl]-1,2,3,4-tetrahydroquinolin-3-yl}-1H-pyrazolo[3,4-d]pyrimidine-4,6-diamine]
- inhibition at 10 µM [1]: 50 to 79%
- inhibition at 10 µM [2]: 50 to 79%
- inhibition at 10 µM [3]: < 50%
- inhibition at 10 µM [4]: < 50%
- inhibition at 10 µM [5]: < 50%

Structure (SMILES): Nc1nc(NC2CCN(S(=O)(=O)c3ccc4c(c3)OCCO4)c3ccccc3C2)c2cn[nH]c2n1 (centres unmarked) [Compound 165, N4-[1-(2,3-dihydro-1,4-benzodioxin-6-ylsulfonyl)-2,3,4,5-tetrahydro-1H-1-benzazepin-4-yl]-1H-pyrazolo[3,4-d]pyrimidine-4,6-diamine]
- inhibition at 10 µM [1]: < 50%
- inhibition at 10 µM [2]: < 50%
- inhibition at 10 µM [3]: < 50%
- inhibition at 10 µM [4]: < 50%
- inhibition at 10 µM [5]: < 50%

Structure (SMILES): Nc1nc(NC2CCN(S(=O)(=O)c3ccccc3)c3ccccc3C2)c2cn[nH]c2n1 (centres unmarked) [Compound 166, N^4-(1-(phenylsulfonyl)-2,3,4,5-tetrahydro-1H-benzo[b]azepin-4-yl)-1H-pyrazolo[3,4-d]pyrimidine-4,6-diamine]
- inhibition at 10 µM [1]: < 50%
- inhibition at 10 µM [2]: < 50%
- inhibition at 10 µM [3]: < 50%
- inhibition at 10 µM [4]: < 50%
- inhibition at 10 µM [5]: < 50%

Structure (SMILES): Nc1nc(NC2CCN(S(=O)(=O)c3ccsc3)c3ccccc3C2)c2cn[nH]c2n1 (centres unmarked) [Compound 167, N4-[1-(3-thienylsulfonyl)-2,3,4,5-tetrahydro-1H-1-benzazepin-4-yl]-1H-pyrazolo[3,4-d]pyrimidine-4,6-diamine]
- inhibition at 10 µM [1]: < 50%
- inhibition at 10 µM [2]: < 50%
- inhibition at 10 µM [3]: < 50%
- inhibition at 10 µM [4]: < 50%
- inhibition at 10 µM [5]: < 50%

Structure (SMILES): Cc1cccc(S(=O)(=O)N2CCC(Nc3nc(N)nc4[nH]ncc34)Cc3ccccc32)c1 (centres unmarked) [Compound 168, N4-{1-[(3-methylphenyl)sulfonyl]-2,3,4,5-tetrahydro-1H-1-benzazepin-4-yl}-1H-pyrazolo[3,4-d]pyrimidine-4,6-diamine]
- inhibition at 10 µM [1]: < 50%
- inhibition at 10 µM [2]: < 50%
- inhibition at 10 µM [3]: < 50%
- inhibition at 10 µM [4]: < 50%
- inhibition at 10 µM [5]: < 50%

Structure (SMILES): Nc1nc(NC2CCN(S(=O)(=O)c3cccc(F)c3)c3ccccc3C2)c2cn[nH]c2n1 (centres unmarked) [Compound 169, N4-{1-[(3-fluorophenyl)sulfonyl]-2,3,4,5-tetrahydro-1H-1-benzazepin-4-yl}-1H-pyrazolo[3,4-d]pyrimidine-4,6-diamine]
- inhibition at 10 µM [1]: < 50%
- inhibition at 10 µM [2]: < 50%
- inhibition at 10 µM [3]: < 50%
- inhibition at 10 µM [4]: < 50%
- inhibition at 10 µM [5]: < 50%

Structure (SMILES): Nc1nc(NC2CCN(S(=O)(=O)c3ccc(Cl)c(C(F)(F)F)c3)c3ccccc3C2)c2cn[nH]c2n1 (centres unmarked) [Compound 170, N4-(1-{[4-chloro-3-(trifluoromethyl)phenyl]sulfonyl}-2,3,4,5-tetrahydro-1H-1-benzazepin-4-yl)-1H-pyrazolo[3,4-d]pyrimidine-4,6-diamine]
- inhibition at 10 µM [1]: < 50%
- inhibition at 10 µM [2]: > 79%
- inhibition at 10 µM [3]: > 79%
- inhibition at 10 µM [4]: < 50%
- inhibition at 10 µM [5]: 50 to 79%

Structure (SMILES): Nc1nc(NC2CCN(S(=O)(=O)c3ccc(Cl)cc3)c3ccccc3C2)c2cn[nH]c2n1 (centres unmarked) [Compound 171, N4-{1-[(4-chlorophenyl)sulfonyl]-2,3,4,5-tetrahydro-1H-1-benzazepin-4-yl}-1H-pyrazolo[3,4-d]pyrimidine-4,6-diamine]
- inhibition at 10 µM [1]: < 50%
- inhibition at 10 µM [2]: < 50%
- inhibition at 10 µM [3]: < 50%
- inhibition at 10 µM [4]: < 50%
- inhibition at 10 µM [5]: < 50%

Structure (SMILES): CCc1ccc(S(=O)(=O)N2CCC(Nc3nc(N)nc4[nH]ncc34)Cc3ccccc32)cc1 (centres unmarked) [Compound 172, N4-{1-[(4-ethylphenyl)sulfonyl]-2,3,4,5-tetrahydro-1H-1-benzazepin-4-yl}-1H-pyrazolo[3,4-d]pyrimidine-4,6-diamine]
- inhibition at 10 µM [1]: < 50%
- inhibition at 10 µM [2]: < 50%
- inhibition at 10 µM [3]: < 50%
- inhibition at 10 µM [4]: < 50%
- inhibition at 10 µM [5]: < 50%

Structure (SMILES): Cc1cc(C)c(S(=O)(=O)N2CCC(Nc3nc(N)nc4[nH]ncc34)Cc3ccccc32)c(C)c1 (centres unmarked) [Compound 173, N4-[1-(mesitylsulfonyl)-2,3,4,5-tetrahydro-1H-1-benzazepin-4-yl]-1H-pyrazolo[3,4-d]pyrimidine-4,6-diamine]
- inhibition at 10 µM [1]: < 50%
- inhibition at 10 µM [2]: < 50%
- inhibition at 10 µM [3]: < 50%
- inhibition at 10 µM [4]: < 50%
- inhibition at 10 µM [5]: < 50%
